# Test results published in US8017635B2, “Phenylalkyl substituted heteroaryl derivatives” (FMC Corporation, priority 2005, dated 2011).
# Test system: tobacco budworm (Heliothis virescens [Fabricius])
# Test: surface-treated diet test against tobacco budworm
# Type: in vivo
# Settings: 0.25 millimolar candidate insecticide on the surface of the diet, second instar larvae, five-day exposure; for Percent Growth Inhibition: inhibition of insect weight relative to untreated controls; for Percent Mortality: mortality compared to the total number of insects infested
# Experimental: Candidate insecticides were evaluated for activity against the tobacco budworm (Heliothis virescens [Fabricius]) in a surface-treated diet test.
# In this test one mL of molten (65-70° C.) wheat germ-based artificial diet was pipetted into each well of a four by six (24 well) multi-well plate (ID# 430345-15.5 mm diameter×17.6 mm deep; Corning Costar Corp., One Alewife Center, Cambridge, Mass. 02140). The diet was allowed to cool to ambient temperature before treatment with the candidate insecticide.
# For a determination of insecticidal activity, solutions of the candidate insecticides were prepared for testing using a Packard 204DT Multiprobe® Robotic System (Packard Instrument Company, 800 Research Parkway, Meriden, Conn. 06450), in which the robot first diluted a standard 50 millimolar DMSO solution of the candidate insecticide with a 1:1 water/acetone solution (V/V) in a ratio of 1:7 stock solution to water/acetone. The robot subsequently pipetted 40 microliters of the so-prepared solution onto the surface of the diet in each of three wells in the 24 multi-well plate. The process was repeated with solutions of seven other candidate insecticides. Once treated, the contents of the multi-well plate were allowed to dry, leaving […] of candidate insecticide on the surface of the diet, or a concentration of 0.25 millimolar. Appropriate untreated controls containing only DMSO on the diet surface were also included in this test. […]
# In each well of the test plate was placed a second instar tobacco budworm larvae, weighing approximately five milligrams. After the larvae were placed in each well, the plate was sealed with clear polyfilm adhesive tape. The tape over each well was perforated to ensure an adequate air supply. The plates were then held in a growth chamber at 25° C. and 60% relative humidity for five days (light 14 hours/day).
# After the five-day exposure period insecticidal activity for each rate of application of candidate insecticide was assessed as percent inhibition of insect weight relative to the weight of insects from untreated controls, and percent mortality when compared to the total number of insects infested.
# The test compounds of formula I are identified by numbers that correspond to those in Table 1.
Compound,Percent Growth Inhibition [%],Percent Mortality [%]
FC(F)(F)c1ccc(-c2nnn(CCOc3c(Cl)cc(OCC=C(Cl)Cl)cc3Cl)n2)cc1 [Compound 7-2],100,100
ClC(Cl)=CCOc1cc(Cl)c(OCCn2cc(-c3ccc(Oc4ccccc4)cc3)nn2)c(Cl)c1 [Compound 1-17],100,67
"FC(F)(F)c1ccc(-c2n[nH]c(CCOc3c(Cl)cc(OCC=C(Cl)Cl)cc3Cl)n2)cc1 [Compound 8-2, 5-(3,3-dichloroprop-2-enyloxy)-1,3-dichloro-2-(2-(3-(4-trifluoromethylphenyl)(1,2,4-triazolyl))ethoxy)benzene]",100,100
ClC(Cl)=CCOc1cc(Cl)c(OCCn2cnc(-c3ccccc3)c2)c(Cl)c1 [Compound 2-1],100,100
Fc1ccc(-c2cn(CCOc3c(Cl)cc(OCC=C(Cl)Cl)cc3Cl)nn2)c(F)c1 [Compound 1-15],100,100
ClC(Cl)=CCOc1cc(Cl)c(OCCn2cc(Cc3ccccc3)nn2)c(Cl)c1 [Compound 1-4],100,100
FC(F)(F)c1cccc(-c2cn(CCOc3c(Cl)cc(OCC=C(Cl)Cl)cc3Cl)nn2)c1 [Compound 1-14],100,100
CC(C)Cc1cn(CCOc2c(Cl)cc(OCC=C(Cl)Cl)cc2Cl)nn1 [Compound 1-6],49,0
FC(F)(F)c1ccc(-c2cn(CCCOc3c(Cl)cc(OCC=C(Cl)Cl)cc3Cl)nn2)cc1 [Compound 1-9],100,100
"FC(F)(F)c1cccc(-c2nnn(CCOc3c(Cl)cc(OCC=C(Cl)Cl)cc3Cl)n2)c1 [Compound 7-54, 5-(3,3-dichloroprop-2-enyloxy)-1,3-dichloro-2(-2-(5-(3-trifluoromethylphenyl)(1,2,3,4-tetraazol-2-yl))ethoxy)benzene]",100,100
"5-(3,3-dichloroprop-2-enyloxy)-1,3-dichloro-2-(2-(4-(4-chlorophenyl)-1,2,3-triazolyl)ethoxy)benzene [Compound 1-2]",100,100
ClC(Cl)=CCOc1cc(Cl)c(OCCn2cc(-c3cccc(Cl)c3)nn2)c(Cl)c1 [Compound 1-12],100,100
C[Si](C)(C)c1cn(CCCOc2c(Cl)cc(OCC=C(Cl)Cl)cc2Cl)nn1 [Compound 1-19],100,100
ClC(Cl)=CCOc1cc(Cl)c(OCCn2cc(-c3ccccc3Cl)nn2)c(Cl)c1 [Compound 1-11],100,100
ClC(Cl)=CCOc1cc(Cl)c(OCCn2cc(CC3CCCC3)nn2)c(Cl)c1 [Compound 1-5],100,100
FC(F)(F)c1ccc(-c2cn(CCOc3c(Cl)cc(OCC=C(Cl)Cl)cc3Cl)nn2)cc1 [Compound 1-1],100,100
ClC(Cl)=CCOc1cc(Cl)c(OCCn2nnc(-c3cccc(Cl)c3)n2)c(Cl)c1 [Compound 7-56],100,100
"FC(F)(F)c1cccc(-c2noc(COc3c(Cl)cc(OCC=C(Cl)Cl)cc3Cl)n2)c1 [Compound 14-54, 5-(3,3-dichloroprop-2-enyloxy)-1,3-dichloro-2((3-(3-trifluoromethylphenyl)(1,2,4-oxadiazol-5-yl))methoxy)benzene]",100,100
ClC(Cl)=CCOc1cc(Cl)c(OCCn2cc(-c3ccc(Cl)c(Cl)c3)nn2)c(Cl)c1 [Compound 1-3],100,100
FC(F)(F)c1ccc(OCc2cn(CCOc3c(Cl)cc(OCC=C(Cl)Cl)cc3Cl)nn2)cc1 [Compound 1-69],71,17
CC(C)(C)c1cn(CCOc2c(Cl)cc(OCC=C(Cl)Cl)cc2Cl)nn1 [Compound 1-7],100,100
ClC(Cl)=CCOc1cc(Cl)c(OCCn2cc(-c3ccc(Cl)cc3Cl)nn2)c(Cl)c1 [Compound 1-8],33,0
ClC(Cl)=CCOc1cc(Cl)c(OCCn2nnc(-c3ccccc3)n2)c(Cl)c1 [Compound 7-1],100,100
ClC(Cl)=CCOc1cc(Cl)c(OCCn2nnc(-c3ccccc3Cl)n2)c(Cl)c1 [Compound 7-55],100,100
CN(C)c1ccc(-c2cn(CCOc3c(Cl)cc(OCC=C(Cl)Cl)cc3Cl)nn2)cc1 [Compound 1-16],91,67
FC(F)(F)c1ccc(-c2cn(CCOc3c(Cl)cc(OCC=C(Cl)Cl)cc3Cl)nn2)nc1 [Compound 1-18],100,100
